melting point | SMILES
82 to 83 °C | CCOC(=O)CCc1cn(Cc2cc(OCc3nc(-c4ccccc4)oc3C)no2)nc1OCC [Example 218, ethyl 3-[3-ethoxy-1-[3-(5-methyl-2-phenyl-4-oxazolylmethoxy)-5-isoxazolylmethyl]-1H-pyrazol-4-yl]propionate]
122 to 123 °C | Cc1oc(-c2ccccc2)nc1COc1ccc2cc(Cn3cc(CCC(=O)O)c(-c4ccccc4)c3)ccc2c1 [Example 54, 3-[1-[6-(5-methyl-2-phenyl-4-oxazolylmethoxy)-2-naphthylmethyl]-4-phenyl-3-pyrrolyl]propionic acid]
109 to 110 °C | Cc1oc(-c2ccccc2)nc1COc1ccc(Cn2cc(CCCCC(=O)O)c(-c3ccccc3)n2)cc1 [Example 97, 5-[1-[4-(5-methyl-2-phenyl-4-oxazolylmethoxy)benzyl]-3-phenyl-1H-pyrazol-4-yl]pentanoic acid]
105 to 106 °C | CCOc1cc(Cn2cc(CCC(=O)O)c(OCC)n2)ccc1OCc1nc(-c2ccccc2)oc1C [Example 217, 3-[3-ethoxy-1-[3-ethoxy-4-(5-methyl-2-phenyl-4-oxazolylmethoxy)benzyl]-1H-pyrazol-4-yl]propionic acid]
140 to 141 °C | Cc1sc(-c2ccccc2)nc1COc1ccc(Cn2cc(CC(=O)O)c(-c3ccccc3)n2)cn1 [Example 312, [1-[6-(5-methyl-2-phenyl-4-thiazolylmethoxy)-3-pyridylmethyl]-3-phenyl-1H-pyrazol-4-yl]acetic acid]
125 to 126 °C | Cc1oc(-c2ccco2)nc1COc1ccc(Cn2cc(CCC(=O)O)c(-c3ccc(F)cc3)n2)cc1 [Example 105, 3-[3-(4-fluorophenyl)-1-[4-[2-(2-furyl)-5-methyl-4-oxazolylmethoxy)benzyl]-1H-pyrazol-4-yl]propionic acid]
136 to 137 °C | CCOc1nn(Cc2ccc(OC)c(OCc3nc(-c4ccccc4)oc3C)c2)cc1CCC(=O)O [Example 215, 3-[3-ethoxy-1-[4-methoxy-3-(5-methyl-2-phenyl-4-oxazolylmethoxy)benzyl]-1H-pyrazol-4-yl]propionic acid]
155 to 156 °C | Cc1oc(-c2ccccc2)nc1COc1ccc(Cn2cc(CCC(=O)O)c(-c3ccccn3)c2)cc1 [Example 64, 3-[1-[4-(5-methyl-2-phenyl-4-oxazolylmethoxy)benzyl]-4-(2-pyridyl)-3-pyrrolyl]propionic acid]
97 to 98 °C | Cc1oc(-c2ccccc2)nc1COc1ccc(Cn2cc(CCC(=O)O)c(C(C)C)n2)cc1 [Example 108, 3-[3-isopropyl-1-[4-(5-methyl-2-phenyl-4-oxazolylmethoxy)benzyl]-1H-pyrazol-4-yl]propionic acid]
161 to 162 °C | O=C(O)CCc1cn(Cc2ccc(OCc3cncc(-c4ccccc4)c3)cc2)nc1-c1ccccc1 [Example 290, 3-[3-phenyl-1-[4-(5-phenyl-3-pyridylmethoxy)benzyl]-1H-pyrazol-4-yl]propionic acid]
109 to 110 °C | CCOC(=O)CCc1cn(Cc2ccc(OC)c(OCc3nc(-c4ccccc4)oc3C)c2)nc1OCC [Example 214, ethyl 3-[3-ethoxy-1-[4-methoxy-3-(5-methyl-2-phenyl-4-oxazolylmethoxy)benzyl]-1H-pyrazol-4-yl]propionate]
132 to 133 °C | O=C(O)CCc1cn(Cc2ccc(OCc3csc(-c4ccccc4)n3)cc2)nc1-c1ccccc1 [Example 304, 3-[3-phenyl-1-[4-(2-phenyl-4-thiazolylmethoxy)benzyl]-1H-pyrazol-4-yl]propionic acid]
147 to 148 °C | Cc1oc(-c2ccccc2)nc1CCOc1ccc(Cn2cc(CCC(=O)O)c(-c3ccccc3)c2)cc1 [Example 14, 3-[1-[4-[2-(5-methyl-2-phenyl-4-oxazolyl)ethoxy]benzyl]-4-phenyl-3-pyrrolyl]propionic acid]
142 to 143 °C | Cc1oc(-c2ccccc2)nc1CCOc1ccc(Cn2cc(CCC(=O)O)c(-c3ccccc3)n2)cc1 [Example 114, 3-[1-[4-[2-(5-methyl-2-phenyl-4-oxazolyl)ethoxy]benzyl]-3-phenyl-1H-pyrazol-4-yl]propionic acid]
169 to 170 °C | O=C(O)CCc1cn(Cc2ccc(OCc3ccc(-c4ccccc4)cn3)cc2)cc1-c1ccccc1 [Example 279, 3-[1-[4-(5-phenyl-2-pyridylmethoxy)benzyl]-4-phenyl-3-pyrrolyl]propionic acid]
144 to 145 °C | Cc1oc(-c2ccccc2)nc1COc1ccc(Cn2cc(CC(=O)O)c(-c3ccccc3)n2)cn1 [Example 308, [1-[6-(5-methyl-2-phenyl-4-oxazolylmethoxy)-3-pyridylmethyl]-3-phenyl-1H-pyrazol-4-yl]acetic acid]
149 to 150 °C | Cc1oc(-c2ccccc2)nc1COc1ccc(Cn2cc(CCC(=O)O)c(-c3ccc(C(F)(F)F)cc3)n2)cc1 [Example 98, 3-[1-[4-(5-methyl-2-phenyl-4-oxazolylmethoxy)benzyl]-3-(4-trifluoromethylphenyl)-1H-pyrazol-4-yl]propionic acid]
120 to 121 °C | Cc1oc(-c2ccccc2)nc1COc1nn(Cc2ccc(Oc3ccccc3)cc2)cc1CCC(=O)O [Example 335, 3-[3-(5-methyl-2-phenyl-4-oxazolylmethoxy)-1-(4-phenoxybenzyl)-1H-pyrazol-4-yl]propionic acid]
147 to 148 °C | O=C(O)CCc1cn(Cc2ccc(OCc3ccccc3)cc2)nc1-c1ccccc1 [Example 77, 3-[1-(4-benzyloxybenzyl)-3-phenyl-1H-pyrazol-4-yl]propionic acid]
138 to 139 °C | CCOc1nn(Cc2ccnc(OCc3nc(-c4ccco4)oc3C)c2)cc1CCC(=O)O [Example 234, 3-[3-ethoxy-1-[2-[2-(2-furyl)-5-methyl-4-oxazolylmethoxy]-4-pyridylmethyl]-1H-pyrazol-4-yl]propionic acid]
142 to 143 °C | CCOc1nn(Cc2cc(OCc3nc(-c4ccccc4)oc3C)no2)cc1CCC(=O)O [Example 219, 3-[3-ethoxy-1-[3-(5-methyl-2-phenyl-4-oxazolylmethoxy)-5-isoxazolylmethyl]-1H-pyrazol-4-yl]propionic acid]
78 to 79 °C | O=C(O)CCc1cn(Cc2cc(OCc3csc(-c4ccccc4)n3)cc(OCc3csc(-c4ccccc4)n3)c2)cc1-c1ccccc1 [Example 266, 3-[1-[3,5-bis(2-phenyl-4-thiazolylmethoxy)benzyl]-4-phenyl-3-pyrrolyl]propionic acid]
147 to 148 °C | O=C(O)CCc1cn(Cc2ccc(OCc3ccc4ccccc4n3)cc2)nc1-c1ccccc1 [Example 285, 3-[3-phenyl-1-[4-(2-quinolylmethoxy)benzyl]-1H-pyrazol-4-yl]propionic acid]
94 to 95 °C | CCOC(=O)/C=C/c1cn(Cc2ccc(OCc3ccccc3)cc2)nc1-c1ccccc1 [Example 284, ethyl (E)-3-[1-(4-benzyloxybenzyl)-3-phenyl-1H-pyrazol-4-yl]propenoate]
113 to 114 °C | Cc1nc(COc2ccc(Cn3cc(CCC(=O)O)c(-c4ccccc4)c3)cc2)cs1 [Example 42, 3-[1-[4-(2-methyl-4-thiazolylmethoxy]benzyl]-4-phenyl-3-pyrrolyl]propionic acid]

Reference: patent US7179823B1, “5-membered n-heterocyclic compounds with hypoglycemic and hypolipidemic activity” (Takeda Pharmaceutical Company Limited, priority 1999, dated 2007)
